Reference: ChEMBL document CHEMBL5584214, “Design of MERS-CoV entry inhibitory short peptides based on helix-stabilizing strategies” (Bioorg Med Chem Lett, 2024)
In brackets after ≈: the same amount, converted by molar mass. Activity calls are given as the source filed them. The calls are words filed in the database; no cut-off is given here. Non-standard residues stand in square brackets, D forms with d. Residues, ends and D or L forms follow the SMILES beside them. *: point of attachment. PEG24 = NCCOCCOCCOCCOCCOCCOCCOCCOCCOCCOCCOCCOCCOCCOCCOCCOCCOCCOCCOCCOCCOCCOCCOCCOCCC(=O)O; Palmitoyl = CCCCCCCCCCCCCCCC(=O)*; AEEA = NCCOCCOCC(=O)O; Aib = CC(C)(N)C(=O)O

What was measured:
[1] = MRT (0 to t) in Sprague-Dawley rat at 4 mg/kg, iv administered as single dose and measured upto 36 hrs by LC-MS/MS analysis; format: ADME, organism-based; conditions: in vivo
[2] = Volume of distribution in Sprague-Dawley rat at 4 mg/kg, iv administered as single dose and measured upto 36 hrs by LC-MS/MS analysis; format: ADME, organism-based; conditions: in vivo
[3] = AUC (0 to t) in Sprague-Dawley rat at 4 mg/kg, iv administered as single dose and measured upto 36 hrs by LC-MS/MS analysis; format: ADME, organism-based; conditions: in vivo
[4] = Inhibition of MERS-CoV Spike glycoprotein mediated cell-cell fusion; parameters: species or system Middle East respiratory syndrome-related coronavirus
[5] = Half life in Sprague-Dawley rat at 4 mg/kg, iv administered as single dose and measured upto 36 hrs by LC-MS/MS analysis; format: ADME, organism-based; conditions: in vivo
[6] = Cmax in Sprague-Dawley rat at 4 mg/kg, iv administered as single dose and measured upto 36 hrs by LC-MS/MS analysis; format: ADME, organism-based; conditions: in vivo
[7] = Clearance in Sprague-Dawley rat at 4 mg/kg, iv administered as single dose and measured upto 36 hrs by LC-MS/MS analysis; format: ADME, organism-based; conditions: in vivo
[8] = test system: Middle East respiratory syndrome-related coronavirus; assay: Antiviral activity against MERS CoV pseudovirus infected in Huh-7 cells assessed as inhibition of viral infection; format: functional, organism-based
[9] = Cytotoxicity against human Huh-7 cells infected with MERS CoV pseudovirus assessed as reduction in cell viability; format: toxicity, cell-based
[10] = test system: Middle East respiratory syndrome-related coronavirus; assay: Inhibition of MERS CoV spike glycoprotein HR1/HR2 fusion assessed as disruption of fusion-active core formation by measuring increase in HR2P density at 100 uM by native-PAGE analysis
[11] = Water solubility of compound in dd-H2O; format: physicochemical
[12] = Selectivity index, ratio of CC50 for human Huh-7 cells infected with MERS CoV pseudovirus to EC50 for MERS CoV pseudovirus infected in Huh-7 cells; format: toxicity, cell-based; conditions: read-out: Ratio CC50/EC50
[13] = test system: Middle East respiratory syndrome-related coronavirus; assay: Inhibition of MERS CoV spike glycoprotein HR1/HR2 fusion assessed as disruption of fusion-active core formation by measuring reduction in six-helix bundle density at 100 uM by native-PAGE analysis
[14] = Water solubility of compound in PBS at pH 7.4; format: physicochemical

**Q.** With CC[C@H](C)[C@H](NC(=O)[C@H](Cc1ccc(O)cc1)NC(=O)[C@H](CO)NC(=O)[C@H](CCC(=O)O)NC(=O)[C@H](CCC(=O)O)NC(=O)[C@H](CC(C)C)NC(=O)[C@H](CCCCN)NC(=O)[C@H](CCCCN)NC(=O)[C@@H](NC(=O)[C@@H](NC(=O)[C@H](CCC(=O)O)NC(=O)[C@H](CCC(=O)O)NC(=O)[C@H](CC(C)C)NC(=O)[C@H](CCCCN)NC(=O)[C@H](CCCCN)NC(=O)[C@H](CCSC)NC(=O)[C@H](CCC(=O)O)NC(=O)[C@H](Cc1ccc(O)cc1)NC(=O)[C@H](CCC(=O)O)NC(=O)[C@H](CC(C)C)NC(=O)[C@H](CC(=O)O)NC(=O)[C@H](CC(C)C)NC(=O)[C@H](CC(C)C)NC(=O)[C@@H](NC(=O)[C@@H](NC(=O)[C@H](CC(N)=O)NC(=O)[C@@H](NC(=O)[C@H](CCC(N)=O)NC(=O)[C@@H](NC(=O)[C@H](CC(C)C)NC(=O)[C@@H](N)CO)[C@@H](C)O)[C@@H](C)CC)[C@@H](C)O)[C@@H](C)O)C(C)C)C(C)C)C(=O)N[C@@H](CC(=O)O)C(=O)N[C@@H](CC(C)C)C(=O)N[C@@H](CCCCN)C(=O)N[C@@H](CCC(=O)O)C(=O)N[C@@H](CC(C)C)C(=O)O as the compound, how does the MRT last at 36 h [1] read?
**A.** Its MRT last at 36 h is 0.28 h.

**Q.** What about the Vd [2] of the same compound?
**A.** The Vd was 0.307 L/kg.

**Q.** What about the AUC(0-t) at 36 h [3] of the same compound?
**A.** Its AUC(0-t) at 36 h is 6.45 µg·h/mL.

**Q.** What about the EC50 [4] of the same compound?
**A.** The EC50 was 0.75 µM.

**Q.** What about the half-life [5] of the same compound?
**A.** The half-life was 0.35 h.

**Q.** And the Cmax [6]?
**A.** Its Cmax is 30.4 µg/mL.

**Q.** What about the clearance [7] of the same compound?
**A.** The clearance was 0.615 L/h/kg.

**Q.** Which EC50 [8] does the source give for CCCCCCCCCCCCCCCC(=O)NCCCC[C@H](NC(=O)COCCOCCNC(=O)[C@H](Cc1ccc(O)cc1)NC(=O)[C@H](CO)NC(=O)[C@H](CCC(=O)O)NC(=O)[C@H](CC(N)=O)NC(=O)[C@H](CC(C)C)NC(=O)[C@H](CCCCN)NC(=O)[C@H](CCCCN)NC(=O)[C@@H](NC(=O)[C@@H](NC(=O)[C@H](CCC(=O)O)NC(=O)[C@H](CCC(N)=O)NC(=O)[C@H](CC(C)C)NC(=O)[C@H](CO)NC(=O)[C@H](CC(C)C)NC(=O)[C@H](CCSC)NC(=O)C(C)(C)NC(=O)[C@H](Cc1ccc(O)cc1)NC(=O)[C@@H](NC(=O)[C@H](CC(C)C)NC(=O)C(C)(C)NC(=O)[C@H](CC(C)C)NC(C)=O)[C@@H](C)O)C(C)C)C(C)C)C(N)=O (Ac-L[Aib]LTY[Aib]MLSLQEVVKKLNESY[AEEA]K(Palmitoyl)-NH2) here?
**A.** The EC50 was 5.22 µM.

**Q.** And the CC50 [9]?
**A.** The CC50 was > 200 µM.

**Q.** And the inhibition [10]?
**A.** Its inhibition is “Active”.

**Q.** And the MRT last at 36 h [1]?
**A.** The MRT last at 36 h was 9.1 h.

**Q.** What about the solubility [11] of the same compound?
**A.** Its solubility is 1.17 µM (≈ 3.5 µg/mL).

**Q.** What about the Vd [2] of the same compound?
**A.** Its Vd is 0.683 L/kg.

**Q.** What about the AUC(0-t) at 36 h [3] of the same compound?
**A.** Its AUC(0-t) at 36 h is 59.8 µg·h/mL.

**Q.** What about the EC50 [4] of the same compound?
**A.** The EC50 was 0.245 µM.

**Q.** And the half-life [5]?
**A.** Its half-life is 7.27 h.

**Q.** What about the selectivity ratio [12] of the same compound?
**A.** Its selectivity ratio is > 38.3.

**Q.** What about the Cmax [6] of the same compound?
**A.** Its Cmax is 5 µg/mL.

**Q.** What about the inhibition [13] of the same compound?
**A.** Its inhibition is “Active”.

**Q.** And the solubility [14]?
**A.** The solubility was 5.46 µM (≈ 16.4 µg/mL).

**Q.** What about the clearance [7] of the same compound?
**A.** The clearance was 0.065 L/h/kg.

**Q.** Which EC50 [4] does the source give for CCCCCCCCCCCCCCCC(=O)NCCCC[C@H](NC(=O)CCOCCOCCOCCOCCOCCOCCOCCOCCOCCOCCOCCOCCOCCOCCOCCOCCOCCOCCOCCOCCOCCOCCOCCOCCNC(=O)[C@H](Cc1ccc(O)cc1)NC(=O)[C@H](CO)NC(=O)[C@H](CCC(=O)O)NC(=O)[C@H](CC(N)=O)NC(=O)[C@H](CC(C)C)NC(=O)[C@H](CCCCN)NC(=O)[C@H](CCCCN)NC(=O)[C@@H](NC(=O)[C@@H](NC(=O)[C@H](CCC(=O)O)NC(=O)[C@H](CCC(N)=O)NC(=O)[C@H](CC(C)C)NC(=O)[C@H](CO)NC(=O)[C@H](CC(C)C)NC(=O)[C@H](CCSC)NC(=O)C(C)(C)NC(=O)[C@H](Cc1ccc(O)cc1)NC(=O)[C@@H](NC(=O)[C@H](CC(C)C)NC(=O)C(C)(C)NC(=O)[C@H](CC(C)C)NC(C)=O)[C@@H](C)O)C(C)C)C(C)C)C(N)=O (Ac-L[Aib]LTY[Aib]MLSLQEVVKKLNESY[PEG24]K(Palmitoyl)-NH2) here?
**A.** The EC50 was > 50 µM.

**Q.** For Ac-LDLTYEMASLQAVVKALNESY-NH2, which EC50 [4] is on record?
**A.** Its EC50 is > 50 µM.
